Source: paper PMC4821601, “The Interactions of P-Glycoprotein with Antimalarial Drugs, Including Substrate Affinity, Inhibition and Regulation” (PLoS ONE, 2016)
Read-outs that look alike come from different tables or passages of the source. Marks after values point to notes of the source that are not given here.

How the values were obtained:
[1] = Bidirectional transport (Papp, efflux ratio) of antimalarials through Caco-2 cell monolayers; type: in vitro ADME, human; conditions: human; for Papp at 120 min: Caco-2, Caco-2 monolayers
Experimental: (§1) The initial experiments were conducted in mid-40s passage cells and repeated in early 80s passage Caco-2 cells. […] In order to maintain equivalent transport medium (HBSS/HBSS with inhibitor) level both outside and inside the chambers, 300 μL was used as medium in the apical chambers and 600 μL in the basolateral chambers. […] Drugs were co-incubated with MRCP, BCRP and ATP hydrolysis blockers to determine the involvement of other efflux mechanisms. Prior to the experiment, the transport medium, HBSS or HBSS with P-gp inhibitors were pre-incubated with the cells for 30 minutes. Following incubation, inserts were placed in new well plates and donor chamber is replaced with drug or drug with inhibitor and the receiver chamber with blank HBSS or HBSS with inhibitor. Transport medium was collected from the receiver chamber after stirring at time intervals of 30, 60, 90 and 120 minutes and was replaced with the same volume of fresh HBSS, or HBSS with inhibitor, when P-gp inhibitors were used in the study. At the end of the experiment 100 μL of medium was removed from the donor chamber in addition to medium collected from the receiver chamber during the study. The cells were then washed thoroughly in cold (4°C) PBS and cell membranes attached to the inserts were sonicated for 10 minutes in a sonicating water bath and centrifuged at 10,000 g for 10 minutes. Supernatant was frozen at -80°C until assayed. […] CL.vol=[…].vol = clearance volume (mL), n = time (min), Aa = amount in acceptor compartment at time n (pmols), Cd0 = concentration in donor compartment at time zero (nM), Vd = volume of the donor compartment (mL), Ca = concentration in acceptor compartment at the previous time point (nM), Vs = sample volume of previous time point (mL), Ac = amount of compound associated with the cells (pmol), Nfin = final time point (min). […] The cleared volume was plotted against time and the slope of the regression line was divided by the surface area to obtain the Papp values. […] The method from Davis and colleagues was adopted with slight modifications. Separations were performed using an Apollo C18 (5 μm, 4.6x150mm) column attached to a matched guard column (5 μm, 4.6x5.5 mm). […] The injection volume was 40 μL and column oven was maintained at 35°C. The analytes were detected at 222 nm and the retention time was 5.6 minutes. Assay developed by Pussard and co-workers were used and slight modifications were done to adjust laboratory conditions. Separation was done using a Prevail C18 (3 μm, 4.6x150mm) column attached to a Direct-connect^TM universal column prefilter. The mobile phase consisted of 20 mM (w/v) KH2PO4 in deionized water at pH 3.0 and acetonitrile (82:18) v/v. […] The injection volume was 40 μL and column oven was maintained at 30°C. The analytes were detected at 343 nm with a retention time of 2.4 minutes. […] Separations were performed using an Apollo C18 (5 μm, 4.6x150mm) column attached to matched guard column (5 μm, 4.6x5.5mm). […] The injection volume was 40 μL and column oven was maintained at 30°C. The analytes were detected at 660 nm with a retention time of 3.8 minutes. A 40 μL sample was spiked with 5 μL 0.5 mM artemisinin internal standard. […] The pipettor was adjusted to the maximum volume (100 μL). […] Pre-treated samples were loaded into the tips by gently aspirating and discarding into the same vial. The process was repeated 10 times in order to increase binding efficiency of drugs to the OMIX 96 C4 matrix. […] The LC-MS method described by […] and co-workers were modified to suit the LC-MS-MS conditions. […] Wexford, Ireland) at 40°C. […] Quantitation was performed in multiple reactions monitoring, MRM mode, using DUIS (ESI^+ and APCI^+) ion sources. […] The optimized mass spectra were acquired with an interface voltage of 4.5 kV, a detector voltage of 1.0 kV, a heat block temperature of 500°C and a desolvation temperature of 160°C.

Caco-2 cell monolayers = assay: as above; type: in vitro ADME, human
Experimental: as §1

P-gp = conditions: 20 μM, 96 hours, Caco-2, western blot vs control
Experimental: Caco-2 cells were seeded in 6 well plates at 10,000 cells/cm^2 for 21 days. Drugs and drug combinations at 20 μM prepared in cell growth medium were added on to the mature cells and exposed for 96 hours. After drug exposure, cells were washed three times using PBS and cell lysate was prepared in lysis buffer. The protein content was quantified using the 96 well micro-Lowry protein assay and regulation of P-gp was determined using western blotting.
The membrane was blocked using 2% casein in TBS and washed with TBST. The primary antibody; Mdr (G-1) mouse monoclonal IgG2b 200 and mouse anti-β actin were used as the antibody for β-actin, the reference protein. The antibody; HRP linked goat anti mouse IgG was used as the secondary antibody. The washed membrane was incubated in a BioRad clarity chemiluminescent substrate and enhancer was read and semi quantified using the BIORAD Chemidoc MPT imager with Image LabTM software.

SMILES: OC(c1cc(C(F)(F)F)nc2c(C(F)(F)F)cccc12)C1CCCCN1 (stereo not drawn) [MQ, mefloquine]
- Papp at 120 min ([1]; drug alone, read-out: Ap-Bas directional Papp, range over concentrations tested): 6 to 10 ×10⁻⁶ cm/s
- Papp at 120 min ([1]; drug alone, read-out: Bas-Ap directional Papp, range over concentrations tested): 5 to 7 ×10⁻⁶ cm/s
- Papp at 120 min ([1]; read-out: permeability across the gastrointestinal epithelium (class)): 1 to 25 ×10⁻⁶ cm/s
- Papp at 120 min ([1]; summary in abstract, methylene blue depending on the direction of transport, read-out: permeability): ~10 ×10⁻⁶ cm/s
- efflux ratio at 120 min, 100 µM ([1]; Caco-2, Conc (μM) + inhibitor (μM): 100, Bas-Ap divided by Ap-Bas): 1.2
- efflux ratio at 120 min, 10 µM ([1]; Caco-2, Conc (μM) + inhibitor (μM): 10, Bas-Ap divided by Ap-Bas): 0.7
- Papp at 120 min, 10 µM ([1]; Caco-2, Conc (μM) + inhibitor (μM): 10, first-named drug measured, read-out: Papp Ap-Bas): 9.9 ± 0.7 ×10⁻⁶ cm/s
- Papp B→A at 120 min, 10 µM ([1]; Caco-2, Conc (μM) + inhibitor (μM): 10, first-named drug measured, read-out: Papp Bas-Ap): 6.6 ± 0.4 ×10⁻⁶ cm/s
- efflux ratio at 120 min, 20 µM ([1]; Caco-2, Conc (μM) + inhibitor (μM): 20, Bas-Ap divided by Ap-Bas): 0.9
- Papp at 120 min, 20 µM ([1]; Caco-2, Conc (μM) + inhibitor (μM): 20, first-named drug measured, read-out: Papp Ap-Bas): 5.8 ± 0.7 ×10⁻⁶ cm/s
- Papp B→A at 120 min, 20 µM ([1]; Caco-2, Conc (μM) + inhibitor (μM): 20, first-named drug measured, read-out: Papp Bas-Ap): 5.3 ± 0.9 ×10⁻⁶ cm/s
- Papp at 120 min, 100 µM ([1]; Caco-2, Conc (μM) + inhibitor (μM): 100, first-named drug measured, read-out: Papp Ap-Bas): 8.9 ± 0.7 ×10⁻⁶ cm/s
- Papp B→A at 120 min, 100 µM ([1]; Caco-2, Conc (μM) + inhibitor (μM): 100, first-named drug measured, read-out: Papp Bas-Ap): 11.4 ± 0.8 ×10⁻⁶ cm/s
- Net flow direction (Caco-2 cell monolayers; Conc (μM) + inhibitor (μM): 10): Diffusion (0.02) ^*
- Net flow direction (Caco-2 cell monolayers; Conc (μM) + inhibitor (μM): 20): Diffusion (0.66)
- Net flow direction (Caco-2 cell monolayers; Conc (μM) + inhibitor (μM): 100): Diffusion (0.08)
- drug absorption predicted from Papp (Caco-2 cell monolayers; based on FDA biopharmaceutical classification system): 50–84%
- regulation of P-gp expression (P-gp): not observed
